Data from PMC4303209, “A novel phosphatidylinositol 3-kinase (PI3K) inhibitor directs a potent FOXO-dependent, p53-independent cell cycle arrest phenotype characterized by the differential induction of a subset of FOXO-regulated genes” (Breast Cancer Research : BCR, 2014).

Test system: MCF-7 breast cancer cells
Assay: Microarray gene expression analysis (Agilent whole human genome 4 x 44K; compound vs DMSO, LIMMA log2 fold change)
Type: cell-based
Settings: Apoptosis genes

**Q.** What does the source list for Cn1ncc2c(N3CCOCC3)nc(-c3cccc(O)c3)nc21 [ETP-45658]?
**A.** KALRN log2FC (Gene 8997): 0.091; SOCS3 log2FC (Gene 9021): -1.264; BRSK2 log2FC (Gene 9024): -0.150; UBE2M log2FC (Gene 9040): -0.487; SART1 log2FC (Gene 9092): -0.304; DNAJA3 log2FC (Gene 9093): 0.296; RABEP1 log2FC (Gene 9135): 0.616; ARHGEF2 log2FC (Gene 9181): -0.734; DEDD log2FC (Gene 9191): -0.182; AURKB log2FC (Gene 9212): -0.212; FAIM3 log2FC (Gene 9214): -0.667; DLG5 log2FC (Gene 9231): -0.344; PNMA1 log2FC (Gene 9240): 0.386; NOG log2FC (Gene 9241): -0.420; CRLF1 log2FC (Gene 9244): -0.116; STK17B log2FC (Gene 9262): 0.460; STK17A log2FC (Gene 9263): 0.274; BCL7C log2FC (Gene 9274): -0.273; TAOK2 log2FC (Gene 9344): -0.736; SLIT2 log2FC (Gene 9353): 0.124; SLC9A3R1 log2FC (Gene 9368): -0.593; TJP2 log2FC (Gene 9414): 0.142; NTN1 log2FC (Gene 9423): -0.272; ITM2B log2FC (Gene 9445): 0.364; AIM2 log2FC (Gene 9447): -0.111; LY86 log2FC (Gene 9450): -0.441; EIF2AK3 log2FC (Gene 9451): 0.631; HAND2 log2FC (Gene 9464): -0.617; ATG5 log2FC (Gene 9474): -0.569; ROCK2 log2FC (Gene 9475): 0.291; MAPK8IP1 log2FC (Gene 9479): -0.208; SLC25A27 log2FC (Gene 9481): 0.161; PSMF1 log2FC (Gene 9491): -0.383; LITAF log2FC (Gene 9516): -0.463; EEF1E1 log2FC (Gene 9521): 0.192; BAG4 log2FC (Gene 9530): 0.066; BAG3 log2FC (Gene 9531): -0.998; EI24 log2FC (Gene 9538): -0.507; BCAR1 log2FC (Gene 9564): -0.597; BRE log2FC (Gene 9577): -0.322; RNF7 log2FC (Gene 9616): -0.220; TRAF4 log2FC (Gene 9618): -0.910; AATK log2FC (Gene 9625): 1.732; IKBKE log2FC (Gene 9641): -0.592; PPM1F log2FC (Gene 9647): -0.513; RAPGEF2 log2FC (Gene 9693): 0.863; ESPL1 log2FC (Gene 9700): 0.453; HERPUD1 log2FC (Gene 9709): 0.217; SLK log2FC (Gene 9748): 0.938; BCLAF1 log2FC (Gene 9774): 0.733; KIAA0141 log2FC (Gene 9812): 0.422; RB1CC1 log2FC (Gene 9821): 1.457; ARHGEF11 log2FC (Gene 9826): -0.194; ARHGEF17 log2FC (Gene 9828): 0.130; MELK log2FC (Gene 9833): 0.433; PSMD6 log2FC (Gene 9861): 0.300; ARNT2 log2FC (Gene 9915): -0.108; THOC1 log2FC (Gene 9984): 0.606; CASP8AP2 log2FC (Gene 9994): 0.813; SRA1 log2FC (Gene 10011): -0.924; PDCD6IP log2FC (Gene 10015): 0.516; PDCD6 log2FC (Gene 10016): -0.540; BCL2L11 log2FC (Gene 10018): 0.145; PARP2 log2FC (Gene 10038): 0.419; DNAJB6 log2FC (Gene 10049): 0.317; DNM1L log2FC (Gene 10059): 0.674; PDCD7 log2FC (Gene 10081): 0.102; PPIF log2FC (Gene 10105): -1.006; FEM1B log2FC (Gene 10116): -0.258; BCAP31 log2FC (Gene 10134): -0.393; RBM5 log2FC (Gene 10181): 0.716; RNF41 log2FC (Gene 10193): 0.235; PSME3 log2FC (Gene 10197): -1.314; DHRS2 log2FC (Gene 10202): 0.711; TOPORS log2FC (Gene 10210): 0.700; PSMD14 log2FC (Gene 10213): 0.447; SPRY2 log2FC (Gene 10253): -1.064; NET1 log2FC (Gene 10276): 0.571; UBE4B log2FC (Gene 10277): -0.652; SAP18 log2FC (Gene 10284): 0.262; TRAIP log2FC (Gene 10293): 0.639; MAEA log2FC (Gene 10296): -0.219; PAK4 log2FC (Gene 10298): -0.601; RTN3 log2FC (Gene 10313): -0.201; CITED2 log2FC (Gene 10370): 2.261; SEMA3A log2FC (Gene 10371): 0.054; DLC1 log2FC (Gene 10395): -0.918; GNB2L1 log2FC (Gene 10399): -0.052; YAP1 log2FC (Gene 10413): 0.283; CFDP1 log2FC (Gene 10428): 0.559; C1D log2FC (Gene 10438): 0.287; ACAA2 log2FC (Gene 10449): 0.222; VAV3 log2FC (Gene 10451): 2.242; STK25 log2FC (Gene 10494): 0.126; SEMA4D log2FC (Gene 10507): 0.201; MYBBP1A log2FC (Gene 10514): -0.538; CIB1 log2FC (Gene 10519): -0.090; ATG7 log2FC (Gene 10533): -0.393; HTATIP2 log2FC (Gene 10553): 0.241; ERN2 log2FC (Gene 10595): -0.829; RBCK1 log2FC (Gene 10616): -0.413; STAMBP log2FC (Gene 10617): 0.425; IVNS1ABP log2FC (Gene 10625): 0.124; TXNIP log2FC (Gene 10628): 2.131; RRAGA log2FC (Gene 10670): -0.331; PNMA2 log2FC (Gene 10687): -0.069; CHL1 log2FC (Gene 10752): 0.057; NES log2FC (Gene 10763): -0.458; PLK2 log2FC (Gene 10769): -0.887; ZMYND11 log2FC (Gene 10771): 0.411; NEK6 log2FC (Gene 10783): -0.620; NCKAP1 log2FC (Gene 10787): 0.702; ZNF268 log2FC (Gene 10795): 0.304; PPP1R13L log2FC (Gene 10848): 0.207; LILRB1 log2FC (Gene 10859): -0.164; MRPS30 log2FC (Gene 10884): 0.391; PROKR1 log2FC (Gene 10887): -0.235; PPARGC1A log2FC (Gene 10891): 0.117; MALT1 log2FC (Gene 10892): -0.183; JTB log2FC (Gene 10899): -0.124; BLCAP log2FC (Gene 10904): -0.662; EDAR log2FC (Gene 10913): -0.358; RNPS1 log2FC (Gene 10921): -0.273; FASTK log2FC (Gene 10922): -0.423; PRDX3 log2FC (Gene 10935): 0.630; MLLT11 log2FC (Gene 10962): -0.777; YWHAQ log2FC (Gene 10971): 0.450; IL24 log2FC (Gene 11009): -0.211; RIPK3 log2FC (Gene 11035): 0.042; PIM2 log2FC (Gene 11040): -0.863; DIDO1 log2FC (Gene 11083): -0.773; FAF1 log2FC (Gene 11124): 0.204; CAPN10 log2FC (Gene 11132): -0.095; NISCH log2FC (Gene 11188): 0.948; CHEK2 log2FC (Gene 11200): 0.312; AKAP13 log2FC (Gene 11214): -0.384; DDX20 log2FC (Gene 11218): 0.500; PDCD10 log2FC (Gene 11235): 0.541; GABARAP log2FC (Gene 11337): 0.197; ATF5 log2FC (Gene 22809): -1.275; PHLDA1 log2FC (Gene 22822): -2.095; CARD8 log2FC (Gene 22900): 0.190; SNW1 log2FC (Gene 22938): 0.686; TRIM32 log2FC (Gene 22954): -0.374; ACIN1 log2FC (Gene 22985): -0.352; TRIM35 log2FC (Gene 23087): 0.473; KIF1B log2FC (Gene 23095): 0.166; PSME4 log2FC (Gene 23198): 0.174; ARHGEF9 log2FC (Gene 23229): 0.258; PACS2 log2FC (Gene 23241): -0.307; MCF2L log2FC (Gene 23263): 0.118; TRIM2 log2FC (Gene 23321): 1.078; ARHGEF12 log2FC (Gene 23365): 0.173; PPP1R13B log2FC (Gene 23368): 0.098; NCSTN log2FC (Gene 23385): 0.216; ADNP log2FC (Gene 23394): 0.193; SIRT1 log2FC (Gene 23411): 1.263
